{"source": "patent US11931347B2", "about": "“Method of screening for agents for differentiating stem cells” (MINERVA BIOTECHNOLOGIES CORPORATION, priority 2015, dated 2024)", "key": {"[1]": {"tested_on": "human naïve state stem cells", "experiment": "stem cell drug screening assay on naïve state stem cells", "type": "cell-based", "settings": "6 uM, 3 days", "procedure": "The stem cell screening assay, was performed in both the presence and absence of the stem cell growth factors: NME7AB for growing naïve stem cells or FGF for growing primed stem cells. If the cognate growth factor was present, then the biological or small molecule would have to compete away the growth factor to get an effect. Therefore, we expected to see more of an effect when the growth factor, FGF for primed stem cells or NME7AB or NME1 dimers for naïve stem cells, was absent. The effect of the compounds on stem cells was visually determined and compounds were ranked 0-4, with 4 being the greatest effect and 0 being no observable effect. The major effect that was observed was a change from pluripotent stem cell morphology, which is a cobblestone pattern of small round cells with a large nucleus to cytoplasm ratio, to that of differentiating stem cells, which are elongated, large and flattened cells with a smaller nucleus to cytoplasm ratio. […] The compounds were added to a final concentration of 6 uM to either naïve state stem cells or primed state stem cells. In this particular case, the naïve state stem cells were maintained in a naïve state by culturing in a media containing NME7AB or NME1 dimers. However, other methods such as 2i and 5i (Silva et al., 2008, Nichols and Smith, 2009, Theunissen et al., 2014)] can be used to maintain stem cells in a more naïve state. In this case primed state stem cells were cultured in bFGF over a layer of MEFs, although it is known that any bFGF containing media will maintain stem cells in the primed state.\nStem cells whether embryonic or induced pluripotent stem (iPS) cells were cultured in a minimal, serum-free media that contained human recombinant NME7AB at a concentration of 2-32 nM wherein 4-8 nM is preferred and 4 nM is more preferred. To facilitate surface attachment, cell culture plates were coated with an anti-MUC1* monoclonal antibody called MN-C3 or C3 or MN-C8 at a concentration of 2-100 ug/mL coating solution, wherein 3-50 ug/mL is preferred and 6-12.5 ug/mL is more preferred. In these experiments, 12.5 ug/mL of MN-C3 was used. Antibody coated plates were incubated at 4 degrees C. overnight prior to plating stem cells. A Rho kinase I inhibitor was added to enhance surface attachment. In some cases, NME7AB was substituted with human recombinant NME1 dimers which also induce stem cells to revert to a naïve-like state.\nHuman naïve state and primed stem cells were cultured in parallel for at least 5 passages to guarantee normal differentiation-free growth. The stem cells were plated in 12-well cell culture plates with 50,000 cells per well. Cells were cultured in their respective media, either bFGF media or NME7AB media for 24 hours. Media was then removed and replaced with media devoid of bFGF or NME7AB, when indicated. Agents being tested for their ability to induce differentiation of naïve stem cells were added to the media at the concentrations indicated. After 72 hours, photographs were taken see FIGS. 1-10.\nHuman naïve state and primed stem cells were cultured in parallel for at least 5 passages to guarantee normal differentiation-free growth. The stem cells were plated in 12-well cell culture plates with 50,000 cells per well. Cells were cultured in their respective media, either bFGF media or NME7AB media for 24 hours. Media was then removed and replaced with media devoid of bFGF or NME7AB. […] Media was changed after 48 hours and replaced with fresh media containing the BRD4 inhibitors. After 4 days the experiment was stopped. Photographs were taken and cell pellets collected for further analysis, see FIGS. 11-16."}, "[2]": {"tested_on": "MUC1* positive cancer cells", "experiment": "cancer cell growth in vitro (previously shown)", "type": "cell-based"}, "[3]": {"tested_on": "OV-90 MUC1* negative ovarian cancer cells", "experiment": "cancer cell proliferation assay (Calcein)", "type": "cell-based", "settings": "96 hours (FIG. 114)", "procedure": "(§1) Small molecule inhibition of cancer cell proliferation studies were also performed on several cancer sub-types. […] The small molecules of the invention had the most robust effect on T47D breast cancer cells, which are highly positive for MUC1* growth factor receptor, and its activating ligands NME7AB and NME7-X1. […] For the cancer cell proliferation experiment cancer cells were plated at constant densities (6000 cells/well) into a 96-well White-walled/Clear-bottom Tissue Culture Treated plate (Corning Incorporated, Big Flats, N.Y.). Small molecule analogs are added at T=24 hours in media with 2% FBS. Following the addition of the small molecules, the cells remain untouched for 120 hours with visual confirmations/inspections at 24, 48, 72 and 96 hours post plating. At the 120 hour mark a calcein fluorescence assay (Thermo Fisher Scientific, Waltham, Mass.) is performed on the plate. Calcein fluorescence (final concentration 0.5 uM) is used to assess cell viability. Cancer cell fluorescence is measured in a TECAN SAFIRE^2 spectrophotometer plate reader. The plate is then imaged using an Olympus IX71 fluorescence imaging microscope and montage of the resulting images are assembled using ImageJ."}, "T47D breast cancer cells": {"tested_on": "T47D breast cancer cells", "experiment": "cancer cell proliferation assay (Calcein live cell stain)", "type": "cell-based, human", "settings": "live cell Calcein stain, 96 hours (FIG. 113)", "procedure": "These analogs of MN1194 and 1186 were also tested in a cell growth assay (FIGS. 107A1-107H6 and FIG. 108A1-108H6, respectively). In this experiment, both parent compound and analogs thereof were added to normal cell culture media to final concentrations of 40 uM, 20 uM, 10 uM, 5 uM or 2.5 uM. For comparison, previously known cancer cell migration inhibitors SU11274 and MN1204 were included in the same experiment. […] Relative cell proliferation is quantified on a standard plate reader that reads the fluorescence of the Calcein that is taken up by live cells.\nSmall molecule inhibition of cancer cell proliferation studies were also performed on several cancer sub-types. […] The small molecules of the invention had the most robust effect on T47D breast cancer cells, which are highly positive for MUC1* growth factor receptor, and its activating ligands NME7AB and NME7-X1.\nFor the cancer cell proliferation experiment cancer cells were plated at constant densities (6000 cells/well) into a 96-well White-walled/Clear-bottom Tissue Culture Treated plate (Corning Incorporated, Big Flats, N.Y.). Small molecule analogs are added at T=24 hours in media with 2% FBS. Following the addition of the small molecules, the cells remain untouched for 120 hours with visual confirmations/inspections at 24, 48, 72 and 96 hours post plating. At the 120 hour mark a calcein fluorescence assay (Thermo Fisher Scientific, Waltham, Mass.) is performed on the plate. Calcein fluorescence (final concentration 0.5 uM) is used to assess cell viability. Cancer cell fluorescence is measured in a TECAN SAFIRE^2 spectrophotometer plate reader. The plate is then imaged using an Olympus IX71 fluorescence imaging microscope and montage of the resulting images are assembled using ImageJ."}, "[4]": {"tested_on": "SK-OV-3 MUC1* positive ovarian cancer cells", "experiment": "cancer cell proliferation assay (Calcein)", "type": "cell-based", "settings": "96 hours (FIG. 112)", "procedure": "as §1, with “[…] […]” for “Following the addition of the small molecules, the cells remain untouched for 120 hours with visual confirmations/inspections at 24, 48, 72 and 96 hours post plating. At the 120 hour mark a calcein fluorescence assay (Thermo Fisher Scientific, Waltham, Mass.) is performed on the plate.”"}, "[5]": {"tested_on": "E-cadherin, fibronectin, vimentin and NF1 expression in naïve stem cells", "experiment": "RT-PCR of differentiation markers in treated naïve stem cells", "type": "cell-based, human", "procedure": "FIG. 161 is a graph of RT-PCR measurement of naïve stem cells that have been treated with compounds of the invention. The genes whose expression is measured are E-cadherin, which goes […] as cells undergo epithelial to mesenchymal transition, fibronectin and vimentin, which both increase as stem cells initiate differentiation and NF1, which is one of the first genes to increase when stem cells begin to differentiate down the neural lineage. […] E-cadherin is the opposite; it […] as cells become cancerous. […] Expression of metastatic marker E-cadherin was reduced and expression of differentiation markers fibronectin, vimentin and NF1 were increased (FIG. 162-FIG. 163). Novel compounds of the invention are highly specific. […] Although we discovered that NME1 dimers, NME7AB and NME7-X1 are all activating ligands of the MUC1* growth factor receptor and they bind to its extracellular domain, we have developed ample evidence that both NME7AB and NME7-X1 have other binding partners and can exert oncogenic effects, independent of MUC1*."}, "[6]": {"tested_on": "NME7AB-induced transition of regular cancer cells to metastatic cancer cells", "experiment": "transition of regular cancer cells to metastatic cancer cells (previously shown)", "type": "cell-based"}}}
{"molecule": "COC(=O)c1ccc(C2c3[nH]c4ccccc4c3CCN2C(=O)c2cccc(Cl)c2)cc1", "note": "(centres unmarked) [MN0642]", "values": [{"measurement": "effect on naïve stem cell pluripotency, growth or differentiation (visually determined)", "setting": "[1]", "result": "induced differentiation"}, {"measurement": "inhibition of cancer cell growth in vitro", "setting": "[2]", "result": "inhibit the growth of cancer cells in vitro"}]}
{"molecule": "Cc1[nH]c(/C=C2\\C(=O)Nc3ccc(S(=O)(=O)N(C)c4cccc(Cl)c4)cc32)c(C)c1C(=O)N1CCN(C)CC1", "note": "[SU11274]", "values": [{"measurement": "effect on growth of OV-90 cells", "setting": "[3]", "result": "neither the compounds of the invention nor JQ1 or SU11274 had any apparent effect"}, {"measurement": "inhibition of growth of T47D cells", "setting": "T47D breast cancer cells", "result": "inhibited growth"}, {"measurement": "effect on growth of SK-OV-3 cells", "setting": "[4]", "result": "no effect"}, {"measurement": "up-regulation of markers of differentiation in naïve stem cells (RT-PCR)", "setting": "[5]", "result": "did not cause up-regulation of markers of differentiation"}]}
{"molecule": "FLR peptide: synthetic peptide corresponding to the extracellular domain of MUC1*, PSMGFR, SEQ ID NO:3 (GTINVHDVETQFNQYKTEAASRYNLTISDVSVSDVPFPFSAQSGA; the extracellular domain of Native Primary Sequence of the MUC1 Growth Factor Receptor (nat-PSMGFR - an example of “PSMGFR”))", "values": [{"measurement": "effect on naïve stem cell pluripotency, growth or differentiation (visually determined)", "setting": "[1]", "result": "induced differentiation"}, {"measurement": "inhibition of transition of regular cancer cells to metastatic cancer cells", "setting": "[6]", "result": "inhibit the transition of regular cancer cells to metastatic cancer cells"}]}
